EC50 data for 43 compounds are collected here from patent US8354403B2, “Pyrrolidine derived beta 3 adrenergic receptor agonists” (Merck Sharp & Dohme Corp., priority 2009, dated 2013).

Where only a bound is given, the exact number is not on record here.

T1 sequence (P13945 whole entry): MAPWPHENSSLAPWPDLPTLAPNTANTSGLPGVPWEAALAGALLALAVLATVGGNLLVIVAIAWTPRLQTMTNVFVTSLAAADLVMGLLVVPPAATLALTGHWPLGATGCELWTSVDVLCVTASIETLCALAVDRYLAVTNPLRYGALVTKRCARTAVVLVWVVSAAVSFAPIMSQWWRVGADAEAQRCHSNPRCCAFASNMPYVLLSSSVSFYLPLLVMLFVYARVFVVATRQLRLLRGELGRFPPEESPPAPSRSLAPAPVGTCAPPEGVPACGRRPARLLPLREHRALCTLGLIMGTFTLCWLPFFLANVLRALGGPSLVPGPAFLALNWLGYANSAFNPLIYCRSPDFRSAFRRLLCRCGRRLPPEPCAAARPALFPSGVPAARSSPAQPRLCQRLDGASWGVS

The first test has as its target T1, human β3 adrenergic receptor (Homo sapiens, UniProt P13945).
T1 construct: expressed in transfected cells; host or cells: Chinese hamster ovary (CHO) cells, stably transfected
Put plainly: Beta-3 agonist in vitro functional assay: cAMP production (LANCE TR-FRET) in CHO cells stably transfected with the cloned β3 receptor. Format: cell-based. The settings on record: Table 4; cAMP, CHO cells; read-out: Human β3 agonist functional activity. The method, boiled down:
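CHO cells stably expressing the cloned receptor, in HEPES-buffered HBSS with BSA and 0.6 mM IBMX, 6,000 cells/well, exposed to compound for 30 min at RT. cAMP read by LANCE TR-FRET against a cAMP standard curve. Isoproterenol defines maximal stimulation.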
As to `O=C(c1ccc(C[C@@H]2CC[C@H]([C@H](O)c3ccccc3)N2)cc1)N1CCCC2(CCCNC2=O)C1` (stereo partly shown) [Example 39], the EC50 fell in the range of 100 to 999 nM.

On to `O=C(c1ccc(C[C@@H]2CC[C@H]([C@H](O)c3cccnc3)N2)cc1)N1CCCC1c1ccccc1F` (stereo partly shown) [Example 16], for which the EC50 is 100 to 999 nM.

Turning to `CCOC(=O)C1CCN(C(=O)c2ccc(C[C@@H]3CC[C@H]([C@H](O)c4ccccc4)N3)cc2)C1` (stereo partly shown) [Example 6], the EC50 is 100 to 999 nM.

As for `O=C(c1ccc(C[C@@H]2CC[C@H]([C@H](O)c3ccccc3)N2)cc1)N1CC2CCC(C1)C2n1cnnn1` (stereo partly shown) [Example 63], the EC50 lay in the range of 1 to 9.9 nM.

The test is the same for the next values; noted with them: Table 5; cAMP, CHO cells; read-out: Human β3 agonist functional activity.
Consider `O=C(c1ccc(C[C@@H]2CC[C@H]([C@H](O)c3ccccc3)N2)cc1)N1CCC(C(O)c2ccccn2)CC1` (stereo partly shown) [Example 168], for which the EC50 was 10 to 99.9 nM.

With `O=C(c1ccc(C[C@@H]2CC[C@H]([C@H](O)c3ccccc3)N2)cc1)N1CCC(Cn2ccncc2=O)CC1` [Example 151], the EC50 was in the range of 10 to 99.9 nM.

Consider `CC(C1CCN(C(=O)c2ccc(C[C@@H]3CC[C@H]([C@H](O)c4ccccc4)N3)cc2)CC1)n1cnccc1=O` (stereo partly shown) [Example 166], for which the EC50 fell in the range of 10 to 99.9 nM.

For the compound `O=C(c1ncco1)C1CCN(C(=O)c2ccc(C[C@@H]3CC[C@H]([C@H](O)c4ccccc4)N3)cc2)CC1` [Example 120], the EC50 was in the range of 10 to 99.9 nM.

As for `Cn1nnc(C2CCN(C(=O)c3ccc(C[C@@H]4CC[C@H]([C@H](O)c5ccccc5)N4)cc3)CC2)n1` [Example 106], the EC50 was in the range of 10 to 99.9 nM.

For the compound `O=C(c1ccc(C[C@@H]2CC[C@H]([C@H](O)c3cccnc3)N2)cc1)N1CCC(S(=O)(=O)c2ccc(F)cc2)CC1` [Example 129], the EC50 was in the range of 100 to 999 nM.

`O=C(c1ccc(C[C@@H]2CC[C@H]([C@H](O)c3ccccc3)N2)cc1)N1CCC(Cn2cccnc2=O)CC1` [Example 150]: the EC50 was 100 to 999 nM.

The test is the same for the next values; noted with them: Table 8; Beta-3 agonist in vitro functional assay; read-out: Human β3 agonist functional activity.
Take `O=C1OC2(CCN(C(=O)c3ccc(C[C@@H]4CC[C@H]([C@H](O)c5cccnc5)N4)cc3)CC2)CC1Cc1ccc(F)cc1` (stereo partly shown) [Example 277]: the EC50 fell in the range of 1 to 9.9 nM.

For `O=C(c1ccc(C[C@@H]2CC[C@H]([C@H](O)c3ccccc3)N2)cc1)N1CCC2(CC1)C(=O)NCN2c1ccccc1` [Example 260], the EC50 was less than 1 nM.

On to `CC(C)COc1ccc2c(c1)C(=O)CC1(CCN(C(=O)c3ccc(C[C@@H]4CC[C@H]([C@H](O)c5ccccc5)N4)cc3)CC1)O2` [Example 324], for which the EC50 was in the range of 10 to 99.9 nM.

For `O=C1NCC2(CCN(C(=O)c3ccc(C[C@@H]4CC[C@H]([C@H](O)c5ccccc5)N4)cc3)CC2)O1` [Example 272], the EC50 fell in the range of 100 to 999 nM.

`O=C1OC2(CCN(C(=O)c3ccc(C[C@@H]4CC[C@H]([C@H](O)c5ccccc5)N4)cc3)CC2)c2cccnc21` [Example 286]: the EC50 lay within 10 to 99.9 nM.

As for `CC1C(=O)c2cc(S(C)(=O)=O)ccc2OC12CCN(C(=O)c1ccc(C[C@@H]3CC[C@H]([C@H](O)c4ccccc4)N3)cc1)CC2` (stereo partly shown) [Example 335], the EC50 was in the range of 10 to 99.9 nM.

Take `O=C(c1ccc(C[C@@H]2CC[C@H]([C@H](O)c3ccccc3)N2)cc1)N1CCC(C(=O)O)(c2ccccc2)CC1` [Example 241]: the EC50 is 100 to 999 nM.

On to `CC1(c2nn[nH]n2)CCN(C(=O)c2ccc(C[C@@H]3CC[C@H]([C@H](O)c4ccccc4)N3)cc2)CC1` [Example 243], for which the EC50 lay within 100 to 999 nM.

Take `O=C(c1ccc(C[C@@H]2CC[C@H]([C@H](O)c3ccccc3)N2)cc1)N1CCC2(CCCC2=O)CC1` [Example 316]: the EC50 was in the range of 1 to 9.9 nM.

Staying with this test, now noted: Table 9; Beta-3 agonist in vitro functional assay; read-out: Human β3 agonist functional activity.
In the case of `Cn1ccnc1CN1CCN(C(=O)c2ccc(C[C@@H]3CC[C@H]([C@H](O)c4ccccc4)N3)cc2)CC1` [Example 396], the EC50 lay in the range of 100 to 999 nM.

`O=C(c1ccc(C[C@@H]2CC[C@H]([C@H](O)c3cccnc3)N2)cc1)N1CCN(c2nccs2)CC1` [Example 379]: the EC50 fell in the range of 100 to 999 nM.

For `CC(C)n1nnnc1CN1CCN(C(=O)c2ccc(C[C@@H]3CC[C@H]([C@H](O)c4ccccc4)N3)cc2)CC1` [Example 400], the EC50 was 10 to 99.9 nM.

Consider `O=C(c1ccc(C[C@@H]2CC[C@H]([C@H](O)c3ccccc3)N2)cc1)N1CCN(c2ncccc2O)CC1` [Example 360], for which the EC50 was 10 to 99.9 nM.

Turning to `O=C(O)[C@@H]1CCCN1C(=O)CN1CCN(C(=O)c2ccc(C[C@@H]3CC[C@H]([C@H](O)c4ccccc4)N3)cc2)CC1` [Example 391], the EC50 was in the range of 100 to 999 nM.

For the compound `O=C(c1ccc(C[C@@H]2CC[C@H]([C@H](O)c3ccccc3)N2)cc1)N1CCN(c2ccccn2)CC1` [Example 355], the EC50 fell in the range of 100 to 999 nM.

Consider `O=C(c1ccc(C[C@@H]2CC[C@H]([C@H](O)c3ccccc3)N2)cc1)N1CCN(Cc2nc3ccccc3o2)CC1` [Example 403], for which the EC50 fell in the range of 1 to 9.9 nM.

In the case of `O=C(c1ccc(C[C@@H]2CC[C@H]([C@H](O)c3ccccc3)N2)cc1)N1CCN(c2ncccc2-c2ccc(F)cc2)CC1` [Example 369], the EC50 was in the range of 10 to 99.9 nM.

Take `O=C(c1ccc(C[C@@H]2CC[C@H]([C@H](O)c3ccccc3)N2)cc1)N1CCN(Cc2n[nH]c3ncccc23)CC1` [Example 406]: the EC50 was in the range of 10 to 99.9 nM.

In the case of `O=C(c1ccc(C[C@@H]2CC[C@H]([C@H](O)c3ccccc3)N2)cc1)N1CCN(Cc2ncccc2C(F)(F)F)CC1` [Example 417], the EC50 was in the range of 10 to 99.9 nM.

Consider `O=C(c1ccc(C[C@@H]2CC[C@H]([C@H](O)c3ccccc3)N2)cc1)N1CCN(Cc2nccc3ccccc23)CC1` [Example 429], for which the EC50 is 10 to 99.9 nM.

Still in this test, the particulars now being: Table 10; Beta-3 agonist in vitro functional assay; read-out: Human β3 agonist functional activity.
`COC(=O)C(C)N1CCN(C(=O)c2ccc(C[C@@H]3CC[C@H]([C@H](O)c4ccccc4)N3)cc2)CC1` (stereo partly shown) [Example 434]: the EC50 lay within 1 to 9.9 nM.

As to `CCCCN(C)C(=O)C(C)N1CCN(C(=O)c2ccc(C[C@@H]3CC[C@H]([C@H](O)c4ccccc4)N3)cc2)CC1` (stereo partly shown) [Example 514], the EC50 fell in the range of 10 to 99.9 nM.

For `CC(C(=O)NCC1CC1)N1CCN(C(=O)c2ccc(C[C@@H]3CC[C@H]([C@H](O)c4ccccc4)N3)cc2)CC1` (stereo partly shown) [Example 447], the EC50 is 10 to 99.9 nM.

`CCNC(=O)C(C)N1CCN(C(=O)c2ccc(C[C@@H]3CC[C@H]([C@H](O)c4ccccc4)N3)cc2)CC1` (stereo partly shown) [Example 436]: the EC50 is 100 to 999 nM.

Take `CC(C(=O)NCC(C)(C)O)N1CCN(C(=O)c2ccc(C[C@@H]3CC[C@H]([C@H](O)c4ccccc4)N3)cc2)CC1` (stereo partly shown) [Example 443]: the EC50 was in the range of 10 to 99.9 nM.

On to `CC(C(=O)N1CCCCC1)N1CCN(C(=O)c2ccc(C[C@@H]3CC[C@H]([C@H](O)c4ccccc4)N3)cc2)CC1` (stereo partly shown) [Example 484], for which the EC50 lay within 10 to 99.9 nM.

Turning to `COC1CN(C(=O)C(C)N2CCN(C(=O)c3ccc(C[C@@H]4CC[C@H]([C@H](O)c5ccccc5)N4)cc3)CC2)C1` (stereo partly shown) [Example 473], the EC50 lay in the range of 10 to 99.9 nM.

The test is the same for the next values; noted with them: Table 11; cAMP, CHO cells; read-out: Human β3 agonist functional activity.
Regarding `CC(c1ccccn1)N1CC2CCC1CN2C(=O)c1ccc(CC2CCC(C(O)c3ccccc3)N2)cc1` (stereo not shown) [Example 542], the EC50 was 100 to 999 nM.

As to `O=C(c1ccc(C[C@@H]2CC[C@H]([C@H](O)c3ccccc3)N2)cc1)N1CC2CC1CN2c1nccs1` (stereo partly shown) [Example 544], the EC50 lay in the range of 999 to 3000 nM.

The test is the same for the next values; noted with them: Table 12; human β3 functional activity given as ranges; read-out: Human β3 agonist functional activity.
`O=C(c1ccc(CC2CCC(C(O)c3ccccc3)N2)cc1)N1CCN(C2CCN(C3CC3)C2=O)CC1` (single isomer, unassigned) [Example 607]: the EC50 is 100 to 999 nM.

Take `O=C(c1ccc(CC2CCC(C(O)c3ccccc3)N2)cc1)N1CCN(C(c2ccccn2)C2CC2)CC1` (single isomer, unassigned) [Example 590]: the EC50 is 1 to 9.9 nM.

With `CC(c1ncccc1Cl)N1CCN(C(=O)c2ccc(CC3CCC(C(O)c4ccccc4)N3)cc2)CC1` (single isomer, unassigned) [Example 594], the EC50 was in the range of 1 to 9.9 nM.
